In paper PMC8622523, “New Diterpenoids from Mesona procumbens with Antiproliferative Activities Modulate Cell Cycle Arrest and Apoptosis in Human Leukemia Cancer Cells” (Pharmaceuticals, 2021):

What was measured:
hepatoma = system: hepatoma; parameters: method as in PMID 30835539; settings: read-out: anti-hepatoma IC50; cited from earlier work
[1] = system: human breast cancer cell line MCF-7; parameters: method as in PMID 15639346; settings: cited from earlier work
[2] = system: U937 (human monoblastic leukemia); assay: Cytotoxicity assay (Cell Counting Kit-8), U937; assay type: cell-based; settings: for IC50: 72 h of drug treatment, Cell Counting Kit-8, means ± SD of 3 independent experiments; for times less potent than 1 and 2: U937 cell lines, SAR comparison
Experimental: (§1) A549 (human lung carcinoma), Hep-3B (human liver carcinoma), PC-3 (human prostate carcinoma), HT29 (human colon carcinoma), U937 (human monoblastic leukemia), and RAW 264.7 cells were purchased from the Food Industry Research and Development Institute (Hsinchu, Taiwan) and cultured in 10% heat-inactivated fetal bovine serum (FBS) in DMEM or RPMI-1640. Cell viability was determined by using Cell Counting Kit-8 (CCK-8; Dojindo, Rockville, MD, USA) according to the manufacturer’s instructions. All experiments were performed in triplicate.

[3] = system: PC-3 (human prostate carcinoma); assay: Cytotoxicity assay (Cell Counting Kit-8), PC-3; assay type: cell-based; settings: 72 h of drug treatment, means ± SD of 3 independent experiments
Experimental: as §1

[4] = system: A549 (human lung carcinoma); assay: Cytotoxicity assay (Cell Counting Kit-8), A549; assay type: cell-based; settings: 72 h of drug treatment, means ± SD of 3 independent experiments
Experimental: as §1

[5] = system: HT29 (human colon carcinoma); assay: Cytotoxicity assay (Cell Counting Kit-8), HT29; assay type: cell-based; settings: 72 h of drug treatment, means ± SD of 3 independent experiments
Experimental: as §1

[6] = system: Hep-3B (human liver carcinoma); assay: Cytotoxicity assay (Cell Counting Kit-8), Hep-3B; assay type: cell-based; settings: 72 h of drug treatment, means ± SD of 3 independent experiments
Experimental: as §1

[7] = system: normal mouse RAW 264.7 macrophages; assay: Cytotoxicity assay (Cell Counting Kit-8), RAW 264.7; assay type: cell-based; settings: for IC50: normal mouse macrophage cell line, 72 h of drug treatment, Cell Counting Kit-8; for toxicity against normal mouse RAW 264.7 macrophages compared with cancer cells: in words
Experimental: as §1

U937 cells [8] = assay: Western blot analysis of cell cycle regulators and apoptosis-related proteins; assay type: cell-based, human
Experimental: Cells were lysed in RIPA buffer with phenylmethylsulfonyl fluoride (PMSF; Beyotime Biotechnology, Jiangsu, China). The protein concentration was determined using a Bio-Rad protein assay system (Bio-Rad, Hercules, CA, USA). Equivalent amounts of proteins were separated by SDS–PAGE and then transferred to polyvinylidene difluoride membranes (Bio-Rad). After blocking in TBS containing 5% nonfat milk, the membranes were incubated with primary antibodies (1:1000 dilution) at 4 °C for 12 h and then incubated with a horseradish peroxidase-conjugated secondary antibody (1:5000 dilution). Signals were detected on X-ray film using an ECL detection system (Pierce, Rockford, IL, USA). The relative protein levels were calculated based on β-actin as the loading control.

[9] = system: A549, Hep-3B, PC-3, HT29, and U937 cancer cells; assay: Antiproliferative activity, panel of five cancer cell lines; assay type: cell-based; settings: Homo sapiens, read-out: IC50 values, range over five cancer cell lines
Experimental: as §1

U937 cells [10] = assay: Measurement of intracellular ROS generation (DCFDA); assay type: cell-based, human; settings: for intracellular ROS levels compared to control: 5 µM mesonol A or 10 µM mesonol B, 30 min, DCFH-DA
Experimental: U937 cells were seeded onto 96-well microplates at a final concentration of 1 × 10^5 cells per well and treated with mesonol A or B (5 or 10 µM) for 30 min with or without pretreatment with N-acetylcysteine (NAC) (10 mM) for 1 h. The cells were stained with 2′,7′-dichlorofluorescin diacetate (DCFDA) Cellular Reactive Oxygen Species Detection Assay Kit (Abcam, Cambridge, UK) solution (20 µM) and then incubated at 37 °C for 30 min in the dark. Fluorescence measurements were performed with a fluorescence plate reader (Bio-Rad, Hercules, CA, USA) at Ex/Em = 485/535 nm in end point mode in the presence of compounds, medium, or buffer. All experiments were performed in triplicate.

U937 cells [11] = assay: Cell cycle and sub-G1 analysis by flow cytometry (PI staining); assay type: cell-based, human; settings: for time course cell cycle analysis: 5 μM mesonol A or 10 μM mesonol B, 3-24 h; for effect of NAC pretreatment on compound-induced cell cycle change (sub-G1 accumulation or G2/M arrest): 10 mM NAC for 1 h, then 5 µM mesonol A 12 h or 10 µM mesonol B 6 h
Experimental: U937 cells were treated with mesonols A (1) or B (2), dosage range: 0.625–10 µM, for the specified time period, fixed in ice-cold 70% ethanol in PBS, suspended in Krishan’s reagent (0.05 mg/mL propidium iodide (PI), 0.1% sodium citrate, 0.02 mg/mL ribonuclease A and 0.3% NP-40), and incubated on ice for 30 min. Data acquisition for 10,000 events was performed with an FACScan system (Becton Dickinson). The distribution of cells in the different phases of the cell cycle was analyzed from the DNA histograms using CELL Quest software. All experiments were performed in triplicate.

HL-60 cells = system: HL-60 cells; parameters: method as in PMID 20851175; settings: cited from earlier work
KYSE-150 cells = settings: cited from earlier work
KYSE-450 cells = settings: cited from earlier work

Compound | IC50 ([7]; RAW264.7) [µM] | IC50 ([2]; Homo sapiens, U-937, 72 h) [µM] | IC50 ([3]; Homo sapiens, 72 h) [µM] | IC50 ([4]; Homo sapiens, A549, 72 h) [µM] | IC50 ([5]; Homo sapiens, HT-29, 72 h) [µM] | IC50 ([6]; Homo sapiens, Hep3B, 72 h) [µM] | also measured
4α-hydroxy-17,19-dinor-ent-kaurane-16-one |  |  |  |  |  |  | IC50 (hepatoma): > 100 µM
CC1(C)CCC[C@]2(C)[C@@H]1CC[C@@]13C[C@@H](CC[C@H]12)[C@@](O)(CO)C3.CC1(C)CCC[C@]2(C)[C@@H]1CC[C@@]13C[C@@H](CC[C@H]12)[C@@](O)(CO)C3.O (single isomer, unassigned; ent-16) [ent-16β,17α-dihydroxykaurane] |  |  |  |  |  |  | cytotoxicity and apoptotic effects [1]: exhibit cytotoxicity and apoptotic effects
CCc1c2c(nc3ccc(OC(=O)N4CCC(N5CCCCC5)CC4)cc13)-c1cc3c(c(=O)n1C2)COC(=O)[C@]3(O)CC [CPT-11, reference compound] |  |  |  |  |  |  | IC50 [2]: 4.95 ± 0.43 µM; IC50 [3]: 31.03 ± 0.28 µM; IC50 [4]: 15.3 ± 0.42 µM; IC50 [5]: 15.1 ± 0.48 µM; IC50 [6]: 23.2 ± 0.38 µM
CC1(C)CCCC2(C)C1CCC13CC(C(O)CC12)C(O)(CO)C3=O (stereo not drawn) [Compound 1, 12α,16β,17-trihydroxy-ent-kaur-15-one] | > 50 | 2.66 ± 0.14 | 12.5 ± 0.24 | 17.4 ± 0.28 | 9.1 ± 0.38 | 12.1 ± 0.55 | toxicity against normal mouse RAW 264.7 macrophages compared with cancer cells [7]: less toxic against normal mouse RAW 264.7 macrophages; G2/M progression proteins cdc25c, cyclin B1, CDK1 (U937 cells [8]; 5 µM, 12 h): decreases in the G2/M progression proteins cdc25c, cyclin B1, and CDK1; p21 protein level (U937 cells [8]; 5 µM, 12 h): significant increase in p21 protein; IC50 [9]: 1.97 to 19.9 µM; intracellular ROS levels compared to control (U937 cells [10]): did not induce an increase in intracellular ROS levels; time course cell cycle analysis (U937 cells [11]): time-dependent accumulation of cells arrested in the G2/M phase; effect on cell population at G2/M phase (U937 cells [11]; 10 μM, 24 h): significant increase in the cell population at G2/M phase; effect of NAC pretreatment on compound-induced cell cycle change (sub-G1 accumulation or G2/M arrest) (U937 cells [11]): little to no effect; effect on percentage of sub-G1 population, dose response (U937 cells [11]; 0.625-10 μM, 24 h, plateau at 5 μM): dose-dependently increased the percentage of the sub-G1 population
CC1(C)CCCC2(C)C1CCC13CC(C(O)CC12)C(CO)C3=O (stereo not drawn) [Compound 2, 12α-hydroxy-16β-hydroxymethyl-ent-kaur-15-one] | > 50 | 1.97 ± 0.09 | 4.19 ± 0.31 | 7.39 ± 0.42 | 2.78 ± 0.03 | 7.06 ± 0.38 | toxicity against normal mouse RAW 264.7 macrophages compared with cancer cells [7]: less toxic against normal mouse RAW 264.7 macrophages; PARP cleavage (U937 cells [8]; 10 µM, 6 h): significantly cleaved and activated; antiapoptotic proteins (Bcl-2, Bcl-xL) (U937 cells [8]; 10 µM, 6 h): decreases in antiapoptotic proteins, including Bcl-2 and Bcl-xL; caspase-9 and -3 activation (pro-caspase-9 and -3 protein levels) (U937 cells [8]; 10 µM, 6 h): induced the activation of caspase-9 and -3; proapoptosis-related proteins (Bax, cytochrome c, apaf-1) (U937 cells [8]; 10 µM, 6 h): increases in proapoptosis-related proteins, including Bax, cytochrome c and apaf-1; IC50 [9]: 1.97 to 19.9 µM; intracellular ROS levels compared to control (U937 cells [10]): significantly higher than those in control cells; intracellular ROS levels with NAC pretreatment (U937 cells [10]; 10 mM NAC 1 h, then 10 µM mesonol B 30 min): could be blocked by pretreatment with NAC; time course cell cycle analysis (U937 cells [11]): did not cause an obvious accumulation of cells in any phase but significantly increased apoptotic cells in the sub-G1 population; sub-G1 population (U937 cells [11]; 5 μM, 24 h): 6.33%; sub-G1 population (U937 cells [11]; 10 μM, 24 h): 53.86%; effect of NAC pretreatment on compound-induced cell cycle change (sub-G1 accumulation or G2/M arrest) (U937 cells [11]): significantly suppressed
CC1(C)CCCC2(C)C1CCC13CC(C(O)CC21)C(O)(CO)C3O (stereo not drawn) [Compound 3, 12α,15β,16β,17-tetrahydroxy-ent-kaurane] | > 50 |  | 16.5 ± 0.55 | 17.1 ± 0.36 | 14.2 ± 0.31 | 17.1 ± 0.73 | IC50 [2]: 6.73 ± 0.36 µM; times less potent than 1 and 2 [2]: 2–3 times; IC50 [9]: 1.97 to 19.9 µM
CC1(C)CCCC2(C)C1CCC13CC(C(O)CC21)C(O)(CCl)C3O (stereo not drawn) [Compound 4, 12α,15β,16β-trihydroxy-17-chloro-ent-kaurane] | > 50 | 8.25 ± 0.24 | 16 ± 0.21 | 19.4 ± 0.38 | 12.6 ± 0.55 | 19.9 ± 0.73 | times less potent than 1 and 2 [2]: 2–3 times; IC50 [9]: 1.97 to 19.9 µM
CC1(C)CCCC2(C)C1CCC13CC(C(O)CC21)C(O)(CO)C3O (stereo not drawn) [Compound 5, 12α,15β,16α,17-tetrahydroxy-ent-kaurane] |  |  |  |  |  |  | IC50 [7]: > 50 µM; IC50 [2]: > 20 µM; IC50 [3]: > 20 µM; IC50 [4]: > 20 µM; IC50 [5]: > 20 µM; IC50 [6]: > 20 µM
CC1(C)CCCC2(C)C1CCC13C(O)C(C(=O)CC21)C(O)(CO)C3O (stereo not drawn) [Compound 6, 14β,15β,16β,17-tetrahydroxy-ent-kaur-12-one] | > 50 | > 20 | > 20 | > 20 | > 20 | > 20 | 
CC1(C)CCCC2(C)C1CCC13CC(C(=O)CC21)C(O)(CO)C3O (stereo not drawn) [Compound 7, 15β,16β,17-trihydroxy-ent-kaur-12-one] | > 50 | > 20 | > 20 | > 20 | > 20 | > 20 | 
C=C1C2CC3C4(C)CCCC(C)(C)C4CCC3(CC2O)C1O (stereo not drawn) [Compound 9, 13α,15β-trihydroxy-ent-atis-16(17)-ene] | > 50 | > 20 | > 20 | > 20 | > 20 | > 20 | 
C=C1C2CC3C4(C)CCCC(C)(C)C4CCC3(C1O)C(O)C2O (stereo not drawn) [Compound 10, 13α,14β,15β-trihydroxyl-ent-atis-16-ene] | > 50 | > 20 | > 20 | > 20 | > 20 | > 20 | 
CC1(C)CCCC2(C)C1CCC13CC=C(CO)C1OC(=O)CC23 (centres unmarked) [Compound 11, sarcopetal-13(16)-en-17-ol-12,15-olide] | > 50 | > 20 | > 20 | > 20 | > 20 | > 20 | 
C=C1C(=O)[C@@]23[C@H](O)C[C@@H]4C(C)(C)C(=O)CC[C@@]4(C)[C@@H]2CC[C@@H]1[C@H]3O [glaucocalyxin A] |  |  |  |  |  |  | apoptosis induction (HL-60 cells): induced apoptosis in HL-60 cells
C=C1C(=O)[C@@]23[C@@H]4O[C@H]5O[C@@]2(O)[C@@H](O)[C@@H]2C(C)(C)CCC[C@]52[C@@H]3CC[C@@H]14 [xerophilusin B] |  |  |  |  |  |  | apoptosis and cell cycle arrest (KYSE-150 cells): induce apoptosis and G2/M phase cell cycle arrest; apoptosis and cell cycle arrest (KYSE-450 cells): induce apoptosis and G2/M phase cell cycle arrest
